Laboratory results reported in patent publication US9173871B2, “Oxazole and thiazole compounds as beta-catenin modulators and uses thereof” (New York University, priority 2008, dated 2015).

What was measured:
[1] = test system: HCT116 cells; assay: Flow cytometry cell cycle analysis of HCT116 cells; type: cell-based; settings: HCT116, 16 hrs, FIG. 9
Method: In order to test the inhibitory effect of candidate compounds on the transcription of endogenous Wnt/β-cat target genes in HCT116 cells, lysates were prepared from cells that were either treated with candidate small molecules or DMSO control. […] Cell cycle arrest of compound treated HCT116 cells was further confirmed by the reduced number of phosphorylated Histone3 (PH3) positive cells, when cultured in the presence of candidate compounds (FIG. 10).
Flow Cytometry analysis was performed on HCT116 cells treated with candidate compounds for 16 hrs per standard protocols. Briefly, compound treated cells were harvested and washed in 1×PBS followed by fixation in 70% Ethanol at 4° C. for 16 hrs. Cells were then washed in 1×PBS and treated with RNAse at 37° C. for 30′. Following extensive washes in 1×PBS, cellular DNA was stained with 500 ug/ml of Propidium Iodide at room temperature for 10′. Cells were washed again in 1×PBS and analysed by flow cytometry on a FACScalibur machine (Beckson Dickinson) at the NYU flow cytometry core facility.

[2] = test system: Wnt/wg pathway, Wnt-responsive luciferase reporter dTF12; assay: Wg-responsive dTF12 (TOP12) luciferase reporter assay in Drosophila Clone 8 cells, pathway activated by Axin dsRNA; type: cell-based; settings: Drosophila melanogaster; luciferase assay method in Drosophila Clone 8 cells
Description: The present inventors employed a novel methodology that integrates a “sensitized” chemical genetic high-throughput screen (HTS) with RNA-interference (RNAi) screening technology in order to identify specific small molecule inhibitors of the Wnt pathway in Drosophila cells. As described herein, Drosophila Clone 8 cell-based assay systems developed by the present inventors to investigate the Wnt/wg pathway [DasGupta et al. Science 308, 826-33 (2005)] were used in a small molecule chemical genetic screen to identify specific inhibitors of the pathway. These cell-based assays, which are described in detail below, utilize a Wnt-responsive luciferase reporter […], the activity of which can be determined using […]. The present inventors used the small-molecule library available from the Institute of Chemistry and Cellular Biology (ICCB-Longwood) at Harvard Medical School, Boston, for the screen. […] The resultant activation of the Wnt signaling pathway is then detected by assessing the activity of the Wnt-responsive luciferase reporter gene in the cell-based assay system. […] Primary Small Molecule Screen for the Wingless Signaling Pathway in Drosophila Clone 8 Cells Set up transfection with Wg-reporter ([…]), Normalization vector (PolIII-RL) and dsRNA against […] specific towards Drosophila Axin and lacks any predicted off-targets). 1. Add 40,000 Drosophila Clone 8 cells (in 40 μL) in 384-well plate (white solid bottom, Corning Costar) using the multidrop. 2. Add 20 μLof Transfection mix in each well of a 384-well plate (Corning Costar) using the multidrop. Incubate at 25° C. for 4 days to ensure complete knockdown of Axin. Add small molecule library (Cybio Robot). Incubate 18 hrs. Assay luminescence from the samples using the “Dual-Glo” luciferase kit (Promega Inc.). Specifically, aspirate supernatant and add 20 μL media+20 μL luciferase buffer using the multidrop. Read Firefly Luciferase activity on the EnVision (Perkin Elmer plate reader). Add 20 μL of Stop&Glo using the multidrop. Read Renilla luciferase activity on the EnVision (Perkin Elmer plate reader). The Wnt signaling pathway was induced by the introduction of dsRNAs specific for Axin into Clone 8 cells comprising the Wg-responsive luciferase reporter-gene ([…]). As described herein, Axin is a scaffold protein that negatively regulates Arm/β-cat by promoting its degradation. Thereafter, a selected set of a small molecule library was added to the Clone 8 cell-based assay system to assess the effect of individual compounds on (Axin dsRNA-mediated) activated CRT by monitoring the activity of the Wg-responsive luciferase reporter-gene ([…]). […] For the purpose of Table 11 below, activity of each compound is determined using the luciferase assay method in Drosophila Clone 8 cells.

[3] = test system: C57 mg mouse mammary epithelial cell line; assay: C57mg transformation assay (Wnt3a induced); type: cell-based; settings: 10 ng/μl, 5 days, FIG. 5
Method: The transformation assay was carried out in a 96 well format. C57 mg cells were cultured in DMEM/10% FBS supplemented with purified Wnt3a protein (R&D Systems) to a final concentration of […]. Small molecule compounds dissolved in DMSO were added to a final concentration of 10 ng/μl and 0.01% DMSO. Following incubation at 37° C. for 5 days, cells were fixed with 4% Formaldehyde in 1×PBS at RT for 30 min and washed subsequently with 1×PBS at room temperature (RT) for 5 minutes (×3). Cells were then permeabilized in Blocking buffer (0.1% Triton-X/1×PBS/5% Normal Goat Serum) at RT for 20 min, subsequent to which, cells were incubated with anti-β-cat at RT for 1 hour (diluted to 1:1000 in blocking buffer). Subsequently, cells were washed with 1×PBS at RT for 10 minutes (×3) and then incubated with secondary antibody and Alexa-Fluor 488 conjugated phalloidin in Blocking buffer at RT for 1 hour. Following a brief wash in 1×PBS, cells were imaged in PBS buffer using the Array-Scan imaging system.
Transformation of the cell line is evidenced by pronounced changes in morphology, typified by formation of chord-like bundles of cells or foci-forming colonies that break off and float in the media [Wong et al. supra, 1994]. This Wnt responsive phenotype provides a mammalian assay in which to evaluate the inhibitory effect of the small molecule inhibitors identified in the primary screen. Briefly, cells are cultured in Wnt3a conditioned media in the presence or absence of a small molecule inhibitor and morphological analysis conducted using automated microscopy.
The present inventors have established a phenotypic assay using the Wnt-responsive C57 mg mouse mammary epithelial cell line to ascertain the validity of the inhibitory compounds identified in the primary screen. Specifically, addition of Wnt3a conditioned media or purified Wnt3a protein results in cellular transformation, manifested by a pronounced change from an epithelial-cell like morphology to those resembling spindle shaped cells with chord like bundles. […] The Array-Scan imagining system (Cellomics Inc.) is used to image such phenotypic changes in a 96-well plate format so as to gain a quantitative estimate of the degree of the inhibitory effect of the compounds on Wnt3a induced transformation in C57 mg cells. Quantitative analysis of the transformation phenotype is measured by the degree of actin fiber alignment (defined as anisotropy), which is expressed as the standard deviation (SD) of the angles projected by the actin fibers relative to the normal; low SD numbers reflect an increase in Wnt-responsive transformation. This approach allows for objective inferences on the cellular effects of the candidate inhibitors.

[4] = test system: Wnt-responsive STF16 luciferase reporter in HEK 293 cells; assay: Wnt-responsive STF16 luciferase reporter assay in HEK 293 cells; type: cell-based, mammalian; settings: 2.5 ng/μl, Wnt3a conditioned media, FIG. 4
Method: HEK 293 cells were transfected with 50 ng each of the Wnt-responsive STF16 luciferase reporter and pCMV-RL normalization reporter using the Lipofectamine LTX (Invitrogen Inc.) in a 96 well plate format. Cells were cultured in DMEM/10% FBS at 37° C. for 2 days following which, they were induced with Wnt3a conditioned media for 1 day and then treated with small molecule compounds to a final concentration of 2.5 ng/μl for approximately 18 hours. Luciferase reporter activity was then measured using the Dual-Glo system (Promega Inc.) on the Envision Plate Reader. Normalized luciferase activity in response to treatment with candidate small molecule compounds was compared to that obtained from cells treated with DMSO. In order to confirm and corroborate the activity of CRT inhibitor compounds in a mammalian context, the present inventors have tested a subset of the inhibitors identified in the context of established mammalian cell lines. […] Briefly, HEK 293 cells were transfected with pSTF16-LF along with the normalization reporter, pCMV-RL and the effect of the compounds on reporter activity in such cells was determined by quantifying the luminescence from the luciferase reporter gene as described in Dasgupta et al. [supra (2005)].

`Cc1cc(/C=C2\SC(=O)N(c3ccccc3)C2=O)c(C)n1-c1cccnc1` [Compound C14] was tested, and the cell cycle effect [1] was “G0/G1 arrest”.

`CCc1ccc(-c2nc(CSCC(=O)NCc3ccccc3)c(C)o2)cc1` [IIa-66] gave an IC50 [2] of 3.51 µM.

With `COc1cccc(/C=C2\SC(=S)N(CCCC(=O)O)C2=O)c1OC` [IIa-143] the IC50 [2] was 3.06 µM.

In the case of `CCc1ccc(-c2nc(CSCC(=O)NCCc3ccccc3)c(C)o2)cc1` [IIa-333], the IC50 [2] is reported as 4.18 µM.

`O=C(CCCN1C(=O)/C(=C/c2cccs2)SC1=S)Nc1ccc(O)cc1` [IIa-432] was tested, and the “inhibition of Wnt3a induced C57 mg transformation” value [3] was “significant inhibition”, the “inhibition of Wnt responsive luciferase reporter activity in HEK-293 cells” value [4] was “poor inhibitors” and the IC50 [2] was 4.76 µM.

For `CCc1ccc(-c2nc(CSCC(=O)NC3CC3)c(C)o2)cc1` [IIa-719], the “inhibition of Wnt3a induced C57 mg transformation” value [3] was “partial reduction” and the IC50 [2] was 1.58 µM.

In the case of `Cc1ccc(-c2nc(CSCC(=O)NC3CC3)c(C)o2)cc1` [IIa-722], the “inhibition of Wnt3a induced C57 mg transformation” value [3] is reported as “partial reduction” and the IC50 [2] is reported as 1260 µM.

For `CCc1ccc(-c2nc(CSCC(=O)N3CCc4ccccc43)c(C)o2)cc1` [IIa-2102], the “inhibition of Wnt3a induced C57 mg transformation” value [3] was “partial reduction” and the IC50 [2] was 1.1 µM.
